Assay results taken from the supplement of paper PMC10307832.

What was measured:
Assay in all cases: relative viability (nuclei count vs DMSO), 5 days (fraction); higher = more cells survive
Obatoclax + OSI-027 = compound: COC1=CC(c2cc3ccccc3[nH]2)=N/C1=C\c1[nH]c(C)cc1C [Obatoclax] + COc1cccc2cc(-c3nc([C@H]4CC[C@H](C(=O)O)CC4)n4ncnc(N)c34)[nH]c12 [OSI-027] (partner 0.5 µM)
In short: (§1)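 Relative viability was taken as the ratio of nuclei in treated wells to nuclei in vehicle wells. Lung cancer cell lines in 1536-well plates received compounds by pin tool one day after seeding, either one drug alone or a fixed anchor-drug dose plus five library-drug doses (not always all listed) in √10 steps. Nuclei were counted on 4× images after 5 days of treatment, and values are medians of duplicate plates.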

Bortezomib + AZD7762 = compound: CC(C)C[C@H](NC(=O)[C@H](Cc1ccccc1)NC(=O)c1cnccn1)B(O)O [Bortezomib] + NC(=O)Nc1cc(-c2cccc(F)c2)sc1C(=O)N[C@H]1CCCNC1 [AZD7762] (partner 0.2 µM)
In short: as §1

[1] = compound: CC1=CC(=NN1)NC2=CC(=NC(=N2)/C=C/C3=CC=CC=C3)N4CCN(CC4)C + CC(C)C[C@H](NC(=O)[C@H](Cc1ccccc1)NC(=O)c1cnccn1)B(O)O [Bortezomib] (partner 0.002 µM)
In short: as §1

[2] = compound: CC1=CC(=NN1)NC2=CC(=NC(=N2)/C=C/C3=CC=CC=C3)N4CCN(CC4)C + C[C@]1(O)C[C@@H](c2nc(-c3ccc4ccc(-c5ccccc5)nc4c3)c3c(N)nccn32)C1 [Linsitinib] (partner 1 µM)
In short: as §1

Row | Cell Line | relative viability (Obatoclax + OSI-027; first compound 0.01 µM) | relative viability (Obatoclax + OSI-027; first compound 0.03162 µM) | relative viability (Obatoclax + OSI-027; first compound 0.1 µM) | relative viability (Obatoclax + OSI-027; first compound 0.3162 µM) | relative viability (Obatoclax + OSI-027; first compound 1 µM) | relative viability (Bortezomib + AZD7762; first compound 0.0002 µM) | relative viability (Bortezomib + AZD7762; first compound 0.000632 µM) | relative viability (Bortezomib + AZD7762; first compound 0.002 µM) | relative viability (Bortezomib + AZD7762; first compound 0.006325 µM) | relative viability (Bortezomib + AZD7762; first compound 0.02 µM) | relative viability ([1]; first compound 0.08 µM) | relative viability ([1]; first compound 0.253 µM) | relative viability ([1]; first compound 0.8 µM) | relative viability ([1]; first compound 2.53 µM) | relative viability ([1]; first compound 8 µM) | relative viability ([2]; first compound 0.08 µM) | relative viability ([2]; first compound 0.253 µM) | relative viability ([2]; first compound 0.8 µM) | relative viability ([2]; first compound 2.53 µM) | relative viability ([2]; first compound 8 µM)
1 | NCI-H647 | 0.606 | 0.692 | 0.585 | 0.346 | 0.184 | 0.405 | 0.447 | 0.419 | 0.0227 | 0.0188 | 0.807 | 1.1 | 0.957 | 0.068 | 0.0571 | 1.06 | 1.25 | 1.21 | 0.0813 | 0.0644
2 | NCI-H727 | 0.776 | 0.554 | 0.857 | 0.61 | 0.453 | 0.631 | 0.611 | 0.688 | 0.698 | 0.595 | 0.841 | 0.586 | 0.867 | 0.463 | 0.255 | 0.208 | 0.342 | 0.261 | 0.221 | 0.1
3 | NCI-H838 | 0.498 | 0.367 | 0.46 | 0.385 | 0.284 | 0.878 | 0.925 | 0.9 | 0.682 | 0.622 | 0.759 | 0.802 | 0.705 | 0.168 | 0.0832 | 0.999 | 1.25 | 0.857 | 0.747 | 0.122
4 | NCI-H1355 | 0.391 | 0.386 | 0.462 | 0.422 | 0.399 | 0.794 | 0.721 | 0.922 | 0.293 | 0.133 | 1.16 | 1.17 | 1.16 | 0.885 | 0.168 | 0.797 | 0.843 | 0.779 | 0.62 | 0.41
5 | NCI-H1437 | 0.868 | 0.889 | 0.835 | 0.859 | 0.752 | 1.09 | 1.11 | 1.04 | 0.496 | 0.194 | 0.621 | 0.554 | 0.656 | 0.247 | 0.0909 | 1.09 | 1.12 | 0.88 | 0.416 | 0.083
6 | NCI-H1651 | 0.628 | 0.712 | 0.804 | 0.428 | 0.252 | 0.451 | 0.474 | 0.485 | 0.507 | 0.131 | 0.946 | 0.892 | 0.865 | 0.876 | 0.448 | 0.904 | 1.2 | 0.855 | 0.607 | 0.144
7 | NCI-H1666 | 0.881 | 0.89 | 0.95 | 0.443 | 0.5 | 0.849 | 0.935 | 0.817 | 0.592 | 0.333 | 0.892 | 0.925 | 0.872 | 0.55 | 0.215 | 0.83 | 0.949 | 0.747 | 0.77 | 0.288
8 | NCI-H1734 | 0.648 | 0.612 | 0.569 | 0.465 | 0.254 | 0.563 | 0.541 | 0.57 | 0.116 | 0.0989 | 0.814 | 0.999 | 0.731 | 0.234 | 0.13 | 0.907 | 0.867 | 0.917 | 0.478 | 0.196
9 | NCI-H1755 | 0.768 | 0.709 | 0.667 | 0.742 | 0.763 | 0.442 | 0.425 | 0.508 | 0.287 | 0.2 | 0.913 | 1.01 | 0.956 | 0.63 | 0.195 | 1.05 | 1.04 | 0.993 | 0.799 | 0.267
10 | NCI-H1792 | 0.793 | 0.716 | – | 0.624 | 0.932 | 0.657 | 0.693 | 0.602 | 0.344 | 0.0353 | 0.863 | 0.999 | 0.919 | 0.84 | 0.0942 | 0.58 | 0.56 | 0.513 | 0.316 | 0.112
11 | NCI-H1915 | 0.613 | 0.585 | 0.584 | 0.604 | 0.546 | 0.751 | 0.726 | 0.715 | 0.163 | 0.0511 | 1.01 | 1.04 | 1.01 | 0.555 | 0.54 | 1.1 | 1.1 | 1.03 | 0.815 | 0.569
12 | NCI-H1975 | 0.801 | 0.665 | – | 0.511 | 0.177 | 0.727 | 0.652 | 0.319 | 0.172 | 0.194 | 0.403 | 0.408 | 0.31 | 0.159 | 0.109 | 0.904 | 0.951 | 0.722 | 0.203 | 0.127
13 | NCI-H1993 | 0.501 | 0.551 | 0.623 | 0.526 | 0.528 | 0.838 | 0.877 | – | 0.333 | 0.324 | 1.08 | – | 1.2 | 0.781 | 0.391 | 0.842 | – | 0.617 | 0.594 | 0.55
14 | NCI-H2085 | 0.818 | 0.917 | 0.587 | 0.506 | 0.359 | 1.04 | 0.907 | 1.07 | 0.881 | 0.225 | 1.06 | 1.05 | 1.07 | 0.651 | 0.333 | 0.796 | 0.95 | 0.931 | 0.502 | 0.289
15 | NCI-H2087 | 0.768 | 0.525 | 0.529 | 0.333 | 0.159 | 1.3 | 1.23 | 1.19 | 0.0709 | 0.0403 | 0.792 | 1.03 | 0.818 | 0.648 | 0.11 | 0.982 | 0.909 | 0.965 | 0.723 | 0.203
16 | NCI-H2126 | 0.766 | 0.546 | 0.878 | 0.651 | 0.736 | 1 | 1.01 | 0.968 | 0.942 | 0.516 | 1.07 | 1.14 | 1.19 | 1.09 | 1.02 | 0.647 | 0.72 | 0.716 | 0.621 | 0.421
17 | NCI-H2347 | 0.461 | 0.408 | – | 0.467 | 0.412 | 0.888 | 0.695 | 0.73 | 0.553 | 0.276 | 0.829 | 1.21 | 1.04 | 1.32 | 0.461 | 0.844 | 1.05 | 0.99 | 0.93 | 0.614
18 | NCI-H2405 | 0.65 | 0.688 | – | 0.643 | 0.727 | 0.699 | 0.714 | 0.919 | 0.165 | 0.159 | 0.963 | 0.819 | 1.02 | 0.865 | 0.958 | 0.951 | 0.674 | 1.06 | 0.499 | 0.164
19 | NCI-H3122 | 0.931 | 0.976 | 1.02 | 0.859 | 0.2 | 0.976 | 1.09 | 1.03 | 0.784 | 0.11 | 0.92 | 0.924 | 1.07 | 1.02 | 0.542 | 1.01 | 0.944 | 0.999 | 0.884 | 0.77
20 | PC-3 [JPC-3] | 0.808 | 0.728 | 0.791 | 0.731 | 0.752 | 0.773 | 0.829 | 0.531 | 0.225 | 0.199 | 0.836 | 0.968 | 0.838 | 0.853 | 0.761 | 1.01 | 1.02 | 0.918 | 0.95 | 0.814
21 | PC-14 | 0.729 | 0.834 | 0.67 | 0.519 | 0.0675 | 0.279 | 0.336 | 0.364 | 0.123 | 0.0742 | 0.748 | 0.947 | 0.839 | 0.488 | 0.0557 | 0.906 | 1.01 | 0.892 | 0.77 | 0.107
22 | RERF-LC-KJ | 0.578 | 0.554 | 0.553 | 0.475 | 0.268 | 0.819 | 1.12 | 1.12 | 0.966 | 0.409 | 1.09 | 1.16 | 1.12 | 0.748 | 0.381 | 0.817 | 0.863 | 0.792 | 0.604 | 0.216
